From patent US8809340B2, “Crystalline form” (Novartis AG, priority 2012, dated 2014)
Structures can show the parent of a compound that is named as a salt.

Tests used:
[1] = Solid-form transformation upon drying; assay type: physicochemical; settings: transient solvate form in suspension during the crystallization of Form A
[2] = Relative thermodynamic stability of polymorphic forms; assay type: physicochemical; settings: polymorph comparison, succinate salt

form stability / transformation upon drying [1] | Structure (SMILES) | thermodynamic stability relative to Form A [2]
transforms into Form A upon drying | CCCN(CCC)C(=O)COC(=O)CCNS(=O)(=O)c1cccc(C(=O)N2CCC3(CC2)CN/C(=N\C(=O)c2nc(Cl)c(N)nc2N)N3)c1 [Form B, 3-(3-{2-[(E)-3,5-Diamino-6-chloro-pyrazine-2-carbonylimino]-1,3,8-triaza-spiro[4.5]decane-8-carbonyl}-benzenesulfonylamino)-propionic acid dipropylcarbamoylmethyl ester succinate salt] | 
 | CCCN(CCC)C(=O)COC(=O)CCNS(=O)(=O)c1cccc(C(=O)N2CCC3(CC2)CN/C(=N\C(=O)c2nc(Cl)c(N)nc2N)N3)c1 [Form C, 3-(3-{2-[(E)-3,5-Diamino-6-chloro-pyrazine-2-carbonylimino]-1,3,8-triaza-spiro[4.5]decane-8-carbonyl}-benzenesulfonylamino)-propionic acid dipropylcarbamoylmethyl ester succinate salt] | thermodynamically more stable than Form A
